Assay [1] concerns airway resistance in experimental asthma model. Description: Effect on experimental asthma model in guinea pigs. In kind it is in vivo, guinea pigs (Male hadley). To be noted: Cavia porcellus; 100 mg/kg oral, OVA challenge, guinea pigs; Table 7. As for the experimental part: The asthma is typical allergic disease and we carried out this pharmacological test by well known experimental asthma model in guinea pigs in order to confirm that the compounds of the present invention suppress the asthma. In the following, the method of the pharmacological test will be explained.
Method: Male hadley guinea pigs were immunized by intraperitoneal injection of saline (1 ml) containing 5 mg of ovalbumine (OVA) three times at interval of one week. 2 weeks after final immunization, the animals were challenged by inhalation of 1% OVA-saline solution for 1 minute and then the airway resistance of the animals were measured for 30 minutes with PULMOS-1 (Medical Interface Project Station Inc.) after the inhalation. The compounds of the present invention (test compounds) suspended in 0.5% CMCNa were given orally at a dose of 100 mg/kg. As positive control group, Disodium Cromoglicate (DSCG), well known anti-allergic agent, in saline were injected at a dose of 20 mg/kg into the vein of the animals. As vehicle control group, only 0.5% CMCNa solution were given orally. The inhibition (%) of the airway resistance in vehicle control group was calculated according to equation 5 and the result was shown in Table 7. Each experimental group consisted of 5 guinea pigs. [formula] In equation 5: A: Maximum airway resistance in vehicle control group
B: Maximum airway resistance in test compounds group or positive control group

The subject of assay [2] is homologous passive cutaneous anaphylaxis (PCA) reaction. Description: Effect on homologous passive cutaneous anaphylaxis (PCA) reaction in rats. Particulars: Rattus norvegicus, 0.5 h; 100 mg/kg oral, 1 hour before antigen, rats; Table 3. In kind it is in vivo, rats (Male wistar rats). As for the experimental part:
This experimental animal model is caused by immediate type allergic reaction, namely, antigen-antibody reaction. In the following, the method of this pharmacological test will be explained.
Method: Male wistar rats (9 weeks old) were intradermally administered 0.05 ml of anti-serum against trinitrophenylated ascaris (TNP-As) into two sites on the shaved dorsal skin. 48 hours later, 3-glycosyloxybenzopyran derivatives and 4-glycosyloxybenzopyran derivatives (test compounds) suspended in 0.5% sodium carboxymethylcellulose (CMCNa) were given orally at a dose of 100 mg/kg to the animals. 1 hour after administration of Test compounds, the animals were induced anaphylaxis by injection of saline (1 ml) dissolving 5 mg of Evans Blue and 1 mg of TNP-As into the tail vein of the animals. 30 minutes after induction of anaphylaxis, animals were anesthetized by ether and killed by bleeding, and were flayed dorsal skin. The leakage of dye was assessed by measuring the diameter (mean of shortest and longest diameter) of the blue spot on the inside surface of dorsal skin. As vehicle control group, only 0.5% CMCNa solution was administered orally, and as positive control group, Tranilast suspended in 0.5% CMCNa were administered orally at a dose of 100 mg/kg to the animals with the same method as the test compounds groups. Each experimental group consisted of 5 rats. [formula] In equation 1: A: leakage of dye in vehicle control group
B: leakage of dye in test compound group or in positive control group
The anti-allergic activity of the compounds of the present invention were compared with that of analogous compounds which were published in the Patent (EP-A-0598117) by PCA reaction. This pharmacological test was performed according to the method described in Test Example 1.

Assay [3] concerns contact dermatitis induced by picryl chloride. Description: Effect on contact dermatitis induced by picryl chloride in mice (delayed type hypersensitization). It is filed as in vivo. Particulars: Mus musculus; 100 mg/kg oral, ear thickness 24 hours after challenge; Table 6; read-out: Inhibition (%) against the increase of ear thickness. As for the experimental part: The delayed type hypersensitization is inhibited by steroid, but can not be effected by known anti-allergic agents. In the following, the method of the pharmacological test will be explained.
Method: Mice, shaved their abdominal skin on previous day, were immunized by applying 0.1 ml of acetone containing 7 mg of picryl chloride to the skin of the abdomen. 7 days after immunization, the thickness of the ear was measured with a dial thickness gauge, then mice were challenged by painting 5 μl of 1% picryl chloride olive oil solution to each side skin of left ear. 24 hours after challenge, the thickness of the left ear was measured again and the increase (%) of thickness was calculated according to equation 2. The compounds of the present invention (test compounds) suspended in 0.5% CMCNa were forcibly administered orally at a dose of 100 mg/kg at 1 hour before and 16 hours after challenge. As vehicle control group, only 0.5% CMCNa solution were administered orally, and as positive control group, Prednisolone, steroid hormone, and Tranilast were administered orally at the doses of 10 mg/kg and 100 mg/kg, respectively.
Increase (%)=(A-B)/B×100 (Equation 2)
A: thickness of the ear at 24 hours after challenge
B: thickness of the ear before challenge
Inhibition(%)=(C-D)/C×100 (equation 3)
C: The increase (%) in vehicle control group
D: The increase (%) in test compounds group or positive control group

`CCCCCCCCOc1ccc2c(O)c(O[C@@H]3O[C@H](CO)[C@@H](O)[C@H](O)[C@H]3O)c(=O)oc2c1` [compound 16]: the inhibition in vivo at 100 mg/kg in assay [1] stood at 75.8%; in assay [2] it was 62.6%; in assay [3], 64%.

Consider `CCCCCCCCCCCCOc1ccc2c(O)c(O[C@@H]3O[C@H](CO)[C@@H](O)[C@H](O)[C@H]3O)c(=O)oc2c1` [compound 17], for which the inhibition in vivo at 100 mg/kg in assay [1] came to 75%; in assay [2], 59.2%; in assay [3], 59.2%.

For the compound `CC(C)Oc1ccc2c(O)c(O[C@@H]3O[C@H](CO)[C@@H](O)[C@H](O)[C@H]3O)c(=O)oc2c1` [compound 18], the inhibition in vivo at 100 mg/kg in assay [1] turned out to be 70.3%; in assay [2], 56.6%; in assay [3] it was 56.9%.

Consider `CCC=CCCOc1ccc2c(O)c(O[C@@H]3O[C@H](CO)[C@@H](O)[C@H](O)[C@H]3O)c(=O)oc2c1` [compound 19], for which the inhibition in vivo at 100 mg/kg in assay [1] is 73.1%; in assay [2] it was 56.8%; in assay [3] it was 57.4%.

Regarding `CC(C)=CCC/C(C)=C/COc1ccc2c(O)c(O[C@@H]3O[C@H](CO)[C@@H](O)[C@H](O)[C@H]3O)c(=O)oc2c1` [compound 20], the inhibition in vivo at 100 mg/kg in assay [1] was determined as 72.4%; in assay [2] it was 57.2%; in assay [3], 56.2%.

For `O=C(Oc1ccc2c(O)c(O[C@@H]3O[C@H](CO)[C@@H](O)[C@H](O)[C@H]3O)c(=O)oc2c1)c1ccccc1` [compound 21], the inhibition in vivo at 100 mg/kg came to 60.7% in assay [1], 54.4% in assay [2] and 53.6% in assay [3].

With `O=c1oc2cc(OCc3ccccc3)ccc2c(O)c1O[C@@H]1O[C@H](CO)[C@@H](O)[C@H](O)[C@H]1O` [compound 22], the inhibition in vivo at 100 mg/kg in assay [1] was 59.4%; in assay [2], 53.8%; in assay [3], 53.4%.

As to `O=c1oc2cc(O)ccc2c(O)c1O[C@H]1O[C@H](CO)[C@@H](O)[C@H](O)[C@@H]1O` [compound 23], the results for the inhibition in vivo at 100 mg/kg in assay [1], in assay [2] and in assay [3] were 46.6%, 47.8% and 45%, respectively.

With `CCCCOc1ccc2c(O)c(O[C@H]3O[C@H](CO)[C@@H](O)[C@H](O)[C@@H]3O)c(=O)oc2c1` [compound 24], the inhibition in vivo at 100 mg/kg in assay [1] is 58.3%; in assay [2], 54.3%; in assay [3], 52.6%.

Turning to `CCCCCCCCOc1ccc2c(O)c(O[C@H]3O[C@H](CO)[C@@H](O)[C@H](O)[C@@H]3O)c(=O)oc2c1` [compound 25], the figures for the inhibition in vivo at 100 mg/kg in assay [1], in assay [2] and in assay [3] were 68.6%, 50.9% and 57.3%, respectively.

Take `CCCCCCCCCCCCOc1ccc2c(O)c(O[C@H]3O[C@H](CO)[C@@H](O)[C@H](O)[C@@H]3O)c(=O)oc2c1` [compound 26]: the figures for the inhibition in vivo at 100 mg/kg in assay [1], in assay [2] and in assay [3] were 66.3%, 53.3% and 55.9%, respectively.

`CC(C)Oc1ccc2c(O)c(O[C@H]3O[C@H](CO)[C@@H](O)[C@H](O)[C@@H]3O)c(=O)oc2c1` [compound 27]: the inhibition in vivo at 100 mg/kg in assay [1] stood at 56.7%; in assay [2], 47.8%; in assay [3], 51.2%.

Regarding `CCC=CCCOc1ccc2c(O)c(O[C@H]3O[C@H](CO)[C@@H](O)[C@H](O)[C@@H]3O)c(=O)oc2c1` [compound 28], the inhibition in vivo at 100 mg/kg in assay [1] was 57.2%; in assay [2] it was 53.4%; in assay [3], 50.3%.

Take `CC(C)=CCC/C(C)=C/COc1ccc2c(O)c(O[C@H]3O[C@H](CO)[C@@H](O)[C@H](O)[C@@H]3O)c(=O)oc2c1` [compound 29]: the inhibition in vivo at 100 mg/kg came to 56.1% in assay [1], 45.6% in assay [2] and 53.6% in assay [3].

In the case of `O=C(Oc1ccc2c(O)c(O[C@H]3O[C@H](CO)[C@@H](O)[C@H](O)[C@@H]3O)c(=O)oc2c1)c1ccccc1` [compound 30], the inhibition in vivo at 100 mg/kg was determined as 47.8% in assay [1], 41.7% in assay [2] and 48.7% in assay [3].

On to `O=c1oc2cc(OCc3ccccc3)ccc2c(O)c1O[C@H]1O[C@H](CO)[C@@H](O)[C@H](O)[C@@H]1O` [compound 31], for which the inhibition in vivo at 100 mg/kg stood at 53.5% in assay [1], 46.9% in assay [2] and 48.6% in assay [3].

For the compound `O=c1oc2cc(O)ccc2c(O)c1O[C@@H]1O[C@H](CO)[C@H](O)[C@H](O)[C@H]1O` [compound 32], the figures for the inhibition in vivo at 100 mg/kg in assay [1], in assay [2] and in assay [3] were 54.8%, 43.2% and 48.1%, respectively.

Consider `CCCCOc1ccc2c(O)c(O[C@@H]3O[C@H](CO)[C@H](O)[C@H](O)[C@H]3O)c(=O)oc2c1` [compound 33], for which the inhibition in vivo at 100 mg/kg in assay [1] amounted to 68.1%; in assay [2], 57.2%; in assay [3] it was 62.5%.

Regarding `CCCCCCCCOc1ccc2c(O)c(O[C@@H]3O[C@H](CO)[C@H](O)[C@H](O)[C@H]3O)c(=O)oc2c1` [compound 34], the inhibition in vivo at 100 mg/kg in assay [1] was 78.3%; in assay [2], 64.3%; in assay [3], 64.2%.

Consider `CCCCCCCCCCCCOc1ccc2c(O)c(O[C@@H]3O[C@H](CO)[C@H](O)[C@H](O)[C@H]3O)c(=O)oc2c1` [compound 35], for which the results for the inhibition in vivo at 100 mg/kg in assay [1], in assay [2] and in assay [3] were 75.2%, 60.1% and 61.1%, respectively.

In the case of `CC(C)Oc1ccc2c(O)c(O[C@@H]3O[C@H](CO)[C@H](O)[C@H](O)[C@H]3O)c(=O)oc2c1` [compound 36], the inhibition in vivo at 100 mg/kg in assay [1] was 66.4%; in assay [2], 56.7%; in assay [3] it was 58.2%.

With `CCC=CCCOc1ccc2c(O)c(O[C@@H]3O[C@H](CO)[C@H](O)[C@H](O)[C@H]3O)c(=O)oc2c1` [compound 37], the inhibition in vivo at 100 mg/kg amounted to 72.4% in assay [1], 59.5% in assay [2] and 58.3% in assay [3].

In the case of `CC(C)=CCC/C(C)=C/COc1ccc2c(O)c(O[C@@H]3O[C@H](CO)[C@H](O)[C@H](O)[C@H]3O)c(=O)oc2c1` [compound 38], the inhibition in vivo at 100 mg/kg in assay [1] worked out at 73.7%; in assay [2], 59.6%; in assay [3] it was 57.6%.

For `O=C(Oc1ccc2c(O)c(O[C@@H]3O[C@H](CO)[C@H](O)[C@H](O)[C@H]3O)c(=O)oc2c1)c1ccccc1` [compound 39], the inhibition in vivo at 100 mg/kg was determined as 64.1% in assay [1], 58.3% in assay [2] and 54.3% in assay [3].

Consider `O=c1oc2cc(OCc3ccccc3)ccc2c(O)c1O[C@@H]1O[C@H](CO)[C@H](O)[C@H](O)[C@H]1O` [compound 40], for which the inhibition in vivo at 100 mg/kg in assay [1] is 46.2%; in assay [2], 40.5%; in assay [3] it was 41.3%.

These data come from US5525595A, “3- or 4-glycosyloxybenzopyran derivative and antiallergic agent containing the derivative as active ingredient” (priority 1993, dated 1996).
